Consider 14 compounds from patent US20260256779A1, “PYRIDAZIN-3-CARBOXAMIDE COMPOUND AS TYK2 INHIBITOR” (Guangzhou Fermion Technology Co., Ltd., priority 2022, published 2026).

For one series, the target named is T1, TYK2 JH2 pseudokinase (Homo sapiens, UniProt P29597).
T1 construct: 5 μL of 3×TYK2 JH2 kinase (Bioduro); purchased Bioduro
The experiment in a line: TYK2 JH2 in vitro enzyme binding assay (TR-FRET). The note with it: 60 min at room temperature. The method, then:
Purpose: The purpose of this test example was to use a fluorescence resonance energy transfer (TR-FRET) method to test the binding effect of the compound on a TYK2 JH2 pseudokinase, and then evaluate the affinity of the compound for TYK2 JH2.
DMSO-dissolved compounds were used to prepare 10 mM stock solutions, then 200× compounds having different gradient concentrations were prepared in a compound dilution plate, and transferred to an Echo plate. 75 nL of the compounds were transferred from the Echo plate to a 384-well assay plate using an Echo instrument, and 5 μL of 3×TYK2 JH2 kinase (Bioduro), 5 μL of 3× Tb antibody (Cisbio) and 5 μL of 3×TRACER (Bioduro) were added to the 384-well assay plate, centrifuged for 30 seconds, and incubated at room temperature for 60 minutes. A 495 nm/520 nm fluorescence signal ratio was read by an Envision microplate reader (PerkinElmer), and data was analyzed using XL-Fit software to calculate the IC50 of the compound.

Series [1] concerns IL-2-induced CD3+ pSTAT5 (JAK1/3) in hPBMC. Put plainly: IL-2-induced STAT5 phosphorylation (JAK1/3) in CD3+ cell subpopulations in human PBMC, flow cytometry. The format is cell-based. The note with it: CD3+ cells, IL-2 stimulation. The procedure:
Purpose: The purpose of this test example was to test the inhibitory effect of the compound on IL-2-induced STAT5 phosphorylation using protein phosphorylation flow cytometric analysis technology.
Human PBMC cells were pre-incubated with the compounds, STAT5 was induced to phosphorylate under appropriate stimulation conditions, and corresponding cell subpopulations and targets were stained. Flow cytometry was used to read cell data and analyze the strength of phosphorylated antibody signals under different compound concentrations. PBMCs were resuspended and dispensed into a 96-well plate, 62.5 μL/well. 3.5 μL of 20× compound working solutions were added and incubated at 37° C. for 30 minutes. 5 μL of PE Mouse Anti-Human CD3 (BD) was added and incubated at 37° C. in the dark for 30 minutes. 4 μL of 20× IL-2 (R&D) was added to each well and incubated at 37° C. in the dark for 20 minutes. All cells in the 96-well plate were transferred to a deep-well plate, 400 μL of a fixation working solution (Biolegend) was added to each well, and incubated at room temperature in the dark for 20 minutes. The cells were washed twice with PBS, and 400 μL of Perm Buffer III (BD) was added and incubated at 4° C. in the dark for 40 minutes. The cells were washed twice with PBS, and 100 μL of a STAT5 pY694 antibody working solution (BD) was added and incubated at room temperature for 40 minutes. After washing once with PBS, the cells were resuspended in 200 μL of a staining buffer and transferred to a sample plate. The antibody fluorescence intensity was analyzed using FlowJo software, and the IC50 of the compound was calculated using XL-Fit software.
In general terms: Flow cytometry measures light scatter and fluorescence of single cells or particles in a stream.

The nature of series [2]: Pharmacokinetic evaluation by intravenous injection or oral gavage in mice. The format is in vivo. The note with it: ICR mice; for AUC(0-t) / Cmax / Tmax / half-life / clearance / Vd: mouse, plasma; for Vd: read-out: Vz. The procedure: The inventors evaluated the pharmacokinetic properties of the compound of the present invention in mice.
The compound of the present invention was administered to the test animals in the form of 5% DMA+5% Solutol+90% saline or 5% ethanol+5% TPGS+90% PEG300 solvent. The animals were fasted for 12 hours before administration and had free access to water. For the intravenous administration group, the dose was 1 mg/kg. The drug was administered by intragastric administration at a dose of 10 mg/kg. After the drug administration, blood was intravenously drawn from the animals at the following time points (blood volume was approximately 0.3 mL): 0.083, 0.25, 0.5, 1.0, 2.0, 4.0, 8.0 and 24 h. EDTA-K2 was pre-added to blood collection tubes as an anticoagulant, and the blood samples were centrifuged at 6800 g for 6 min to collect plasma, which was then stored at −80° C.
Sample preparation for LC-MS/MS assay: 15 μL of plasma samples was used for protein precipitation with 300 μL of methanol containing 100 ng/mL IS (IS was tolbutamide). The mixture was vortexed for 1 min and then centrifuged at 18000 g for 10 min. 300 μL of the supernatant was transferred to a 96-well plate. 2 μL of the supernatant was subjected to LC-MS/MS analysis.

[3] abbreviates: intragastric administration, 10 mg/kg.
Setting [4] is: po, intragastric administration, 10 mg/kg.
[5] abbreviates: intravenous administration, 1 mg/kg.

As usually defined, the IC50 is the concentration at which inhibition is half-maximal. Read a high IC50 as a need for much substance. Usually AUC(0-t) stands for the area under the concentration-time curve up to a stated or last time point. High values mean high exposure, low ones low exposure. In general, Cmax refers to the highest concentration seen after dosing. Broadly, the Tmax is the time from dosing to the highest level. One may read the half-life as how long it takes for the measured level to halve. Low values mean rapid decline, high ones slow decline.

Some results are limits rather than exact numbers.

T1 sequence (P29597 589-875 limits assumed): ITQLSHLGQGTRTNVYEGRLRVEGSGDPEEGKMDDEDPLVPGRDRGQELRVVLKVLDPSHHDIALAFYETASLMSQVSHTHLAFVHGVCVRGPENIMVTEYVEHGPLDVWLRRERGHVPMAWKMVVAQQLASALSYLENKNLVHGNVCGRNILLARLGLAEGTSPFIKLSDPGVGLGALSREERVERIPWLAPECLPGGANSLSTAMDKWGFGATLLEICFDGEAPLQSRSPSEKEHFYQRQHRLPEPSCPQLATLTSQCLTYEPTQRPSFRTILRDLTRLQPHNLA

The compound `CCONC(=O)c1nnc(NC(=O)C2CC2)cc1Nc1cc(F)cc(-c2ncn(C3CC3)n2)c1OC` [Compound 8, 6-(Cyclopropylcarboxamido)-4-((3-(1-cyclopropyl-1H-1,2,4-triazol-3-yl)-5-fluoro-2-methoxyphenyl)amino)-N-ethoxypyridazine-3-carboxamide] had a half-maximal inhibitory concentration (IC50) on TYK2 JH2 pseudokinase of 0.33 nM.
The same measure, in the same setting: the result for `CCONC(=O)c1nnc(NC(=O)C2CC2)cc1Nc1cc(F)cc(-c2ncn(C)n2)c1OC` [Compound 4, 6-(Cyclopropylcarboxamido)-N-ethoxy-4-((5-fluoro-2-methoxy-3-(1-methyl-1H-1,2,4-triazol-3-yl)phenyl)amino)pyridazine-3-carboxamide] reads 0.2 nM; that for `[2H]C([2H])([2H])n1cnc(-c2cccc(Nc3cc(NC(=O)C4CC4)nnc3C(=O)NOCC)c2OC)n1` [Compound 5, 6-(Cyclopropylcarboxamido)-N-ethoxy-4-((2-methoxy-3-(1-(methyl-d3)-1H-1,2,4-triazol-3-yl)phenyl)amino)pyridazine-3-carboxamide], 0.26 nM.
`CCONC(=O)c1nnc(NC(=O)C2CC2)cc1Nc1cccc(-c2ncn(C3CC3)n2)c1OC` [Compound 7, 6-(Cyclopropylcarboxamido)-4-((3-(1-cyclopropyl-1H-1,2,4-triazol-3-yl)-2-methoxyphenyl)amino)-N-ethoxypyridazine-3-carboxamide] yielded a half-maximal inhibitory concentration (IC50) on TYK2 JH2 pseudokinase of 0.17 nM. This compound came in with a 50% inhibitory concentration (IC50) in series [1] of more than 30000 nM. Besides, the F in series [2] (setting [3]) worked out at 29.09%. Besides, in series [2] (setting [4]), the AUC(0-t) worked out at 7850 ng·h/mL, the Cmax was 3460 ng/mL, the time to peak (Tmax) was determined as 0.83 h and the half-life is 3.75 h. Moreover, in series [2] (setting [5]), the exposure AUC(0-t) came to 2700 ng·h/mL, the Cmax worked out at 3620 ng/mL, the time to peak (Tmax) came out at 0.08 h and the clearance was found to be 6.13 mL/min/kg. In addition, in series [2] (setting [5]), the half-life was 1.51 h and the Vd was determined as 0.81 L/kg.
The compound `[2H]C([2H])([2H])n1cnc(-c2cc(F)cc(Nc3cc(NC(=O)C4CC4)nnc3C(=O)NOCC)c2OC)n1` [Compound 6, 6-(Cyclopropylcarboxamido)-N-ethoxy-4-((5-fluoro-2-methoxy-3-(1-(methyl-d3)-1H-1,2,4-triazol-3-yl)phenyl)amino)pyridazine-3-carboxamide] gave an IC50 at TYK2 JH2 pseudokinase of 0.3 nM.
Turning to `CCONC(=O)c1nnc(NC(=O)C2CC2)cc1Nc1cccc(-c2ncn(C)n2)c1OC` [Compound 3, 6-(Cyclopropylcarboxamido)-N-ethoxy-4-((2-methoxy-3-(1-methyl-1H-1,2,4-triazol-3-yl)phenyl)amino)pyridazine-3-carboxamide], the half-inhibitory concentration (IC50) on TYK2 JH2 pseudokinase amounted to 0.13 nM.
On to `[2H]C([2H])([2H])C([2H])([2H])ONC(=O)c1nnc(NC(=O)C2CC2)cc1Nc1cccc(-c2ncn(C)n2)c1OC` [Compound 15, 6-(Cyclopropylcarboxamido)-N-(ethoxy-d5)-4-((2-methoxy-3-(1-methyl-1H-1,2,4-triazol-3-yl)phenyl)amino)pyridazine-3-carboxamide], for which the IC50 at TYK2 JH2 pseudokinase worked out at 0.14 nM.
In turn, `[2H]C([2H])([2H])ONC(=O)c1nnc(NC(=O)C2CC2)cc1Nc1cccc(-c2ncn(C3CC3)n2)c1OC` [Compound 16, 6-(Cyclopropanamido)-4-((3-(1-cyclopropyl-1H-1,2,4-triazol-3-yl)-2-methoxyphenyl)amino)-N-(methoxy-d3)pyridazine-3-carboxamide] had an IC50 on TYK2 JH2 pseudokinase of 0.29 nM.
Consider `[2H]C([2H])([2H])C([2H])([2H])ONC(=O)c1nnc(NC(=O)C2CC2)cc1Nc1cccc(-c2ncn(C3CC3)n2)c1OC` [Compound 17, 6-(Cyclopropylcarboxamido)-4-((3-(1-cyclopropyl-1H-1,2,4-triazol-3-yl)-2-methoxyphenyl)amino)-N-(ethoxy-d5)pyridazine-3-carboxamide], for which the IC50 at TYK2 JH2 pseudokinase is 0.19 nM. The compound further had an IC50 in series [1] of more than 30000 nM. In series [2] (setting [3]), this compound gave an F of 94.13%. In addition, in series [2] (setting [4]), the exposure AUC(0-t) came out at 17500 ng·h/mL, the peak concentration (Cmax) was 5640 ng/mL, the Tmax is 0.67 h and the half-life is 5.03 h. Moreover, in series [2] (setting [5]), the area under the curve AUC(0-t) came to 1860 ng·h/mL, the concentration peaked (Cmax) at 3400 ng/mL, the time to peak (Tmax) is 0.08 h and the clearance turned out to be 9.13 mL/min/kg. Moreover, in series [2] (setting [5]), the half-life is 3.61 h and the Vd came to 2.77 L/kg.
In turn, `CONC(=O)c1nnc(Nc2cccc(C#N)n2)cc1Nc1cccc(-c2ncn(C)n2)c1OC` [Compound 2, 6-((6-cyanopyridin-2-yl)amino)-N-methoxy-4-((2-methoxy-3-(1-methyl-1H-1,2,4-triazol-3-yl)phenyl)amino)pyridazine-3-carboxamide] had an IC50 at TYK2 JH2 pseudokinase of 0.16 nM.
On the same count and under the same terms, the result for `[2H]C([2H])([2H])ONC(=O)c1nnc(NC(=O)C2CC2)cc1Nc1cccc(-c2ncn(C)n2)c1OC` [Compound 14, 6-(Cyclopropylcarboxamido)-N-(methoxy-d3)-4-((2-methoxy-3-(1-methyl-1H-1,2,4-triazol-3-yl)phenyl)amino)pyridazine-3-carboxamide] reads 0.27 nM.
On to BMS-986165 [reference compound], for which it took 409 nM to reach half-maximal inhibition in series [1] (IC50).
As to `CONC(=O)c1nnc(NC(=O)C2CC2)cc1Nc1cccc(-c2ncn(C)n2)c1OC` [Compound 1, 6-(Cyclopropylcarboxamido)-N-methoxy-4-((2-methoxy-3-(1-methyl-1H-1,2,4-triazol-3-yl)phenyl)amino)pyridazine-3-carboxamide], the concentration for half-maximal inhibition (IC50) on TYK2 JH2 pseudokinase turned out to be 0.17 nM.
`[2H]C([2H])([2H])Oc1c(Nc2cc(NC(=O)C3CC3)nnc2C(=O)NOCC)cccc1-c1ncn(C2CC2)n1` [Compound 9, 6-(Cyclopropylcarboxamido)-4-((3-(1-cyclopropyl-1H-1,2,4-triazol-3-yl)-2-(methoxy-d3)phenyl)amino)-N-ethoxypyridazine-3-carboxamide] had an IC50 at TYK2 JH2 pseudokinase of 0.22 nM. Moreover, in series [1], the concentration for half-maximal inhibition (IC50) was more than 30000 nM. Also, the F in series [2] (setting [3]) came to 72.48%. In series [2] (setting [4]), the exposure AUC(0-t) was 20100 ng·h/mL, the peak level (Cmax) was 9220 ng/mL, the time of peak concentration (Tmax) amounted to 0.67 h and the half-life was 4.64 h. For the same compound, in series [2] (setting [5]), the exposure AUC(0-t) is 2780 ng·h/mL, the peak level (Cmax) was 3730 ng/mL, the time to peak (Tmax) is 0.08 h and the clearance turned out to be 6.09 mL/min/kg. Moreover, in series [2] (setting [5]), the half-life is 4.3 h and the Vd is 1.8 L/kg.
